How the values were obtained:
[1] = system: C. parapsilosis ATCC 22019; design: method as in earlier work; settings: cited from earlier work
[2] = design: method as in PMID 33713781; settings: cited from earlier work
[3] = Distribution in the 1-octanol/buffer pH 7.4 system; type: physicochemical; settings: calculated by Henderson–Hasselbalch equation
[4] = Membrane permeability assay through the PermeaPad barrier (Franz diffusion cell); type: in vitro ADME; settings: buffer pH 7.4, 37 °C, values are Papp multiplied by 10^5, read-out: Papp⋅10^5, apparent permeability coefficient
Excerpt: A vertical-type Franz diffusion cell (PermeGear, Inc., Hellertown, PA, USA) was used to measure the permeability of the studied compounds. The biomimetic lipophilic PermeaPad barrier (PHABIOC, Germany, www.permeapad.com, accessed on 20 May 2021) fully described by di Cagno et al. was employed in the present study to simulate the morphology and properties of the biologic membranes. This membrane was chosen because of its advantageous properties and user friendliness. PermeaPad belongs to cell-free permeation systems. It is composed of two cellulose membranes with a thin layer of phosphatidylcholine (S-100) between them. […]
Firstly, the donor chamber was filled with the donor solution of the tested compound in buffer pH 7.4, then the PermeaPad barrier was mounted between the donor and receptor parts of the diffusion cell (0.785 cm^2 effective surface area) carefully avoiding the air bubbles (which can minimize the active area of the membrane, thus, slowing the permeation). […] The sample solution concentrations were measured spectrophotometrically (Spectramax 190; Molecular Devices, Molecular Devices Corporation, San Jose, CA, USA) in 96-well UV black plates (Costar) at λ = 270 nm. […]
The apparent permeability coefficient (Papp) was calculated by normalizing the slope (J) by the compound concentration in the donor solution (C0) by the equation:(9) Papp=J/C0 […]

SMILES | log(1/MIC) [1] | logKoct/buf, apparent distribution coefficient in the 1-octanol/buffer pH 7.4 system [2] | logK0, distribution coefficient for the uncharged particles [3] | Papp at 5 h [4] [×10⁻⁶ cm/s]
Cc1ccc(-n2c(=S)sc3c(=O)n(CC(O)(Cn4cncn4)c4ccc(F)cc4F)cnc32)cc1 (centres unmarked) [I, N-[2-(2,4-difluorophenyl)-2-hydroxy-3-(1,2,4-triazol-1-yl)propyl]-3-(p-tolyl)-2-thioxo-thiazolo[4,5-d]pyrimidin-7-one] | -1.51 | 0.79 |  | 
COc1ccccc1-n1c(=S)sc2c(=O)n(CC(O)(Cn3cncn3)c3ccc(F)cc3F)cnc21 (centres unmarked) [II, N-[2-(2,4-difluorophenyl)-2-hydroxy-3-(1,2,4-triazol-1-yl)propyl]-3-(2-methoxyphenyl)-2-thioxo-thiazolo[4,5-d]pyrimidin-7-one] | -0.90 |  | -4.66 | 
O=c1c2sc(=S)n(-c3ccc(F)cc3)c2ncn1CC(O)(Cn1cncn1)c1ccc(F)cc1F (centres unmarked) [III, N-[2-(2,4-difluorophenyl)-2-hydroxy-3-(1,2,4-triazol-1-yl)propyl]-3-(4-fluorophenyl)-2-thioxo-thiazolo[4,5-d]pyrimidin-7-one] | -1.51 |  | -4.76 | 
Cc1ccc(-n2c(=S)sc3c(=O)n(CC(=O)NCC(O)(Cn4cncn4)c4ccc(F)cc4F)cnc32)cc1 (centres unmarked) [IV, N-[2-(2,4-difluorophenyl)-2-hydroxy-3-(1,2,4-triazol-1-yl)propyl]-2-[7-oxo-3-(p-tolyl)-2-thioxo-thiazolo[4,5-d]pyrimidin-6-yl]acetamide] | -1.51 | 1.27 | -4.68 | 
O=C(Cn1cnc2c(sc(=S)n2-c2ccc(Cl)cc2)c1=O)NCC(O)(Cn1cncn1)c1ccc(F)cc1F (centres unmarked) [V, N-[2-(2,4-difluorophenyl)-2-hydroxy-3-(1,2,4-triazol-1-yl)propyl]-2-[3-(4-chlorophenyl)-7-oxo-2-thioxo-thiazolo[4,5-d]pyrimidin-6-yl]-acetamide] | -1.51 |  | -4.69 | 
O=C(Cn1cnc2c(sc(=S)n2-c2ccc(F)cc2)c1=O)NCC(O)(Cn1cncn1)c1ccc(F)cc1F (centres unmarked) [VI, N-[2-(2,4-difluorophenyl)-2-hydroxy-3-(1,2,4-triazol-1-yl)propyl]-2-[3-(4-fluorophenyl)-7-oxo-2-thioxo-thiazolo[4,5-d]pyrimidin-6-yl]acetamide] | -1.51 |  | -4.72 | 
COc1ccccc1-n1c(=S)sc2c(=O)n(CC(=O)NCC(O)(Cn3cncn3)c3ccc(F)cc3F)cnc21 (centres unmarked) [VII, N-[2-(2,4-difluorophenyl)-2-hydroxy-3-(1,2,4-triazol-1-yl)propyl]-2-[3-(2-methoxyphenyl)-7-oxo-2-thioxo-thiazolo[4,5-d]pyrimidin-6-yl]acetamide] | -1.51 | 0.80 | -4.73 | 
Cc1ccc(-n2c(=S)sc3c(=O)n(CCN4CCN(CC(O)(Cn5cncn5)c5ccc(F)cc5F)CC4)cnc32)cc1 (centres unmarked) [XII, N-[2-[4-[2-(2,4-difluorophenyl)-2-hydroxy-3-(1,2,4-triazol-1-yl)propyl]piperazin-1-yl]ethyl]-2-methyl-3-(p-tolyl)-2-thioxo-thiazolo[4,5-d]pyrimidin-7-one] | 0.30 | 2.90 | -3.95 | 18.8 ± 0.42
